Results: patent publication US6737383B1, “Herbicidal oxadiazolidines” (priority 1999, dated 2004)

Columns and labels:
[1] = test system: bedstraw; experiment: Test B pre/postemergence bedstraw; type: in vivo, Galium aparine
Method in brief: (§1)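 Herbicidal effect was estimated by eye on a ten-point control scale after plants spent twelve to sixteen days in a greenhouse following soil or foliar treatment. Foliar sprays targeted plants at one to four leaves; all doses were formulated in a non-phytotoxic solvent with surfactant.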

[2] = test system: wheat; experiment: Test B pre/postemergence wheat; type: in vivo, Triticum aestivum
Method in brief: as §1

[3] = test system: rice; experiment: Test B flood test rice; type: in vivo, Oryza sativa; conditions: for Plant response rating, Rice (0 to 10 scale, 0 is no effect, 10 is complete control) / Rice plant response rating (0 to 10 scale, 0 is no effect, 10 is complete control): visual evaluation after twelve to sixteen days; for Rice plant response rating (0 to 10 scale, 0 is no effect, 10 is complete control): under heading Pre-emergence
Method in brief: (§2)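 Flood test on plants grown to the 2-leaf stage; treated plants kept in greenhouse twelve to sixteen days, then visually rated against controls on a 0 (no effect) to 10 (complete control) scale.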

[4] = test system: duck salad; experiment: Test B flood test duck salad; type: in vivo, Heteranthera limosa; conditions: for Plant response rating, Ducksalad (0 to 10 scale, 0 is no effect, 10 is complete control) / Ducksalad plant response rating (0 to 10 scale, 0 is no effect, 10 is complete control): visual evaluation after twelve to sixteen days; for Ducksalad plant response rating (0 to 10 scale, 0 is no effect, 10 is complete control): under heading Pre-emergence
Method in brief: as §2

[5] = Postemergence, Rate 125 g/ha, scale 0 to 10, 0 is no effect, 10 is complete control
[6] = Postemergence, Rate 250 g/ha, scale 0 to 10, 0 is no effect, 10 is complete control
[7] = Preemergence, Rate 62 g/ha, scale 0 to 10 (0 no effect, 10 complete control)
[8] = Preemergence, Rate 250 g/ha, scale of 0 to 10 where 0 is no effect and 10 is complete control
[9] = Rate 62 g/ha, Postemergence, scale of 0 to 10 where 0 is no effect and 10 is complete control
[10] = Rate 500 g/ha, Postemergence, scale 0 to 10, 0 no effect, 10 complete control
[11] = Preemergence, Rate 500 g/ha, scale of 0 to 10 where 0 is no effect and 10 is complete control
[12] = Rate 62 g/ha, flood test species, Pre-emergence
[13] = Rate 125 g/ha, flood test species
[14] = Rate 250 g/ha, Pre-emergence, flood-test species, scale 0 to 10, 0 is no effect, 10 is complete control
[15] = Rate 500 g/ha, Pre-emergence, flood test species, scale 0 to 10 (0 no effect, 10 complete control)
[16] = Postemergence, Rate 250 g/ha, scale 0 to 10
[17] = Postemergence, Rate 500 g/ha, scale of 0 to 10 where 0 is no effect and 10 is complete control
[18] = Rate 125 g/ha, Postemergence, scale 0 to 10, 0 is no effect, 10 is complete control
[19] = Preemergence, Rate 125 g/ha, scale of 0 to 10 where 0 is no effect and 10 is complete control
[20] = Preemergence, Rate 250 g/ha, scale 0 to 10, 0 is no effect, 10 is complete control
[21] = Preemergence, Rate 500 g/ha, scale 0 to 10, 0 is no effect, 10 is complete control
[22] = Postemergence block (flood test species), Rate 250 g/ha, scale 0 to 10
[23] = Postemergence section (flood test species), Rate 500 g/ha, scale of 0 to 10 where 0 is no effect and 10 is complete control
[24] = Rate 125 g/ha, Postemergence section (flood test species), scale 0 to 10, 0 is no effect, 10 is complete control
[25] = Rate 62 g/ha, Postemergence (flood test), scale 0 to 10, 0 no effect, 10 complete control

SMILES | Plant response rating, Bedstraw [1, 5] | Plant response rating, Bedstraw [1, 6] | Plant response rating, Bedstraw [1, 7] | Bedstraw plant response rating (0 to 10 scale) ([1]; Preemergence, Rate 125 g/ha) | Bedstraw plant response rating [1, 8] | Bedstraw plant response rating [1, 9] | Plant response rating, Bedstraw [1, 10] | Plant response rating, Wheat [2, 5] | Plant response rating, Wheat [2, 6] | Plant response rating, Wheat [2, 7] | Wheat plant response rating (0 to 10 scale) ([2]; Preemergence, Rate 125 g/ha) | Wheat plant response rating [2, 8] | Wheat plant response rating [2, 11] | Wheat plant response rating [2, 9] | Plant response rating, Wheat [2, 10] | Plant response rating, Rice (0 to 10 scale, 0 is no effect, 10 is complete control) [3, 12] | Rice plant response rating (0 to 10 scale, 0 is no effect, 10 is complete control) [3, 13] | Rice plant response rating [3, 14] | Rice plant response rating [3, 15] | Plant response rating, Ducksalad (0 to 10 scale, 0 is no effect, 10 is complete control) [4, 12] | further results
CCOc1nc(C(F)(F)F)c(Cn2c(=O)on(C(=O)N(c3ccccc3)C(C)C)c2=O)s1 [Compound 379] | 0 | 0 | 0 | 0 | 0 | 0 | 0 | 0 | 0 | 0 | 0 | 0 | 0 | 0 | 0 | 0 | 0 | 0 | 0 | 0 | Ducksalad plant response rating (0 to 10 scale, 0 is no effect, 10 is complete control) [4, 13]: 0; Ducksalad plant response rating [4, 14]: 0; Ducksalad plant response rating [4, 15]: 0
CCOc1nc(C(F)(F)F)c(Cn2c(=O)on(C(=O)N(c3ccc(F)cc3)C(C)C)c2=O)s1 [Compound 381] | 0 | 0 | 0 | 0 | 0 | 0 | 0 | 0 | 0 | 0 | 0 | 0 | 0 | 0 | 0 | 0 | 0 | 0 | 0 | 0 | Bedstraw plant response rating [1, 11]: 0; Ducksalad plant response rating (0 to 10 scale, 0 is no effect, 10 is complete control) [4, 13]: 0; Ducksalad plant response rating [4, 14]: 0; Ducksalad plant response rating [4, 15]: 0
CC(C)N(C(=O)n1oc(=O)n(C[Si](C)(C)c2ccccc2)c1=O)c1ccc(Cl)cc1 [Compound 424] |  |  |  |  |  | 0 |  |  |  | 0 |  |  |  |  |  |  |  |  |  |  | Bedstraw plant response rating [1, 16]: 0; Bedstraw plant response rating [1, 17]: 0; Bedstraw plant response rating [1, 18]: 0; Wheat plant response rating [2, 16]: 0; Wheat plant response rating [2, 17]: 0; Plant response rating, Wheat [2, 19]: 0; Wheat plant response rating [2, 20]: 0; Wheat plant response rating [2, 21]: 0; Wheat plant response rating [2, 18]: 0; Rice plant response rating [3, 22]: 0; Rice plant response rating [3, 23]: 0; Rice plant response rating [3, 24]: 0; Ducksalad plant response rating [4, 22]: 0; Ducksalad plant response rating [4, 23]: 0; Ducksalad plant response rating ([4]; Rate 62 g/ha, Postemergence (flood test species), scale of 0 to 10 where 0 is no effect and 10 is complete control): 0; Ducksalad plant response rating [4, 24]: 0
CC(C)N(C(=O)n1oc(=O)n(CC(=O)N(C)C)c1=O)c1ccc(F)cc1F [Compound 440] |  |  |  |  |  |  |  |  |  |  |  |  |  |  |  |  |  |  |  |  | Bedstraw plant response rating [1, 16]: 2; Bedstraw plant response rating [1, 18]: 0; Wheat plant response rating [2, 16]: 0; Wheat plant response rating [2, 17]: 4; Plant response rating, Wheat ([2]; Preemergence, Rate 62 g/ha, scale of 0 to 10 where 0 is no effect and 10 is complete control): 0; Plant response rating, Wheat [2, 19]: 0; Wheat plant response rating [2, 20]: 5; Wheat plant response rating [2, 21]: 7; Wheat plant response rating ([2]; Rate 62 g/ha, Postemergence, scale 0 to 10 (0 no effect, 10 complete control)): 0; Wheat plant response rating [2, 18]: 0; Rice plant response rating [3, 22]: 0; Rice plant response rating [3, 23]: 0; Rice plant response rating [3, 25]: 0; Rice plant response rating [3, 24]: 0; Ducksalad plant response rating [4, 22]: 0; Ducksalad plant response rating [4, 23]: 0; Ducksalad plant response rating [4, 25]: 0; Ducksalad plant response rating [4, 24]: 0
